Read-outs that look alike come from different tables or passages of the source.
Key:
[1] = solubility of L-tryptophan in an ethanol-aqueous solution (Referential Example 1); format: physicochemical; settings: pH 5.89, 20° to 75° C.
Method: The pH of the aqueous solution was adjusted to the isoelectric point (5.89), and the aqueous solution was prepared from distilled water and reagent grade ethanol. In FIG. 1, letters a, b, c and d represent the solubility curves of L-tryptophan for the ethanol solution of different compositions shown below. […]
a: Ethanol: 0 Distilled water: 100 (parts by volume) b: Ethanol: 30 Distilled water: 70 c: Ethanol: 50 Distilled water: 50 d: Ethanol: 70 Distilled water: 30

[2] = acid dissociation constant; listed as tryptophane; cited from earlier work
[3] = cited from earlier work; for solubility change with alcohol (in words): alcohol present in aqueous solution; for solubility in water (in words): at the isoelectric point

## N[C@@H](Cc1c[nH]c2ccccc12)C(=O)O [L-tryptophan]
[1]
  solubility, temperature dependence: increases as the temperature goes up from 20 °C to 75 °C
[2]
  pK1: 2.3
[3]
  solubility change with alcohol (in words): increase in solubility
  solubility in water (in words): sparingly soluble in water at the isoelectric point
[3]; pH not less than 11 or not more than 2
  solubility by adjustment of pH only: 8 to 10 wt. %
[3]; solution temperature raised to 60° C.
  increase of solubility on raising solution temperature: ≤ 2%
[3]; listed as tryptophane
  solubility in water (in words): very low solubility in water

## C[C@H](N)C(=O)O [alanine]
[3]
  solubility change with alcohol (in words): decrease in solubility

## N[C@@H](CSSC[C@H](N)C(=O)O)C(=O)O [cystine]
[3]
  solubility in water (in words): sparingly soluble in water at the isoelectric point

## NCCCC[C@H](N)C(=O)O [lysine]
[3]
  solubility in water (in words): highly soluble in water

## CSCC[C@H](N)C(=O)O [methionine]
[3]
  solubility in water (in words): sparingly soluble in water at the isoelectric point

## N[C@@H](Cc1ccccc1)C(=O)O [phenylalanine]
[3]
  solubility change with alcohol (in words): increase in solubility

From patent US4837371A, “Process for concentration of an aqueous solution of amino acid” (Mitsui Toatsu Chemicals, Inc., priority 1986, dated 1989)
